Substitutions are numbered along the chain they refer to. Like-named read-outs stand apart in the source and are kept apart here. Marks after values point to notes of the source that are not given here. {3T} = T cap written 3T / [3'T]; {NH2} = amine group; m = 2'-O-methyl; r = 2'-OH (RNA); f = 2'-fluoro
Columns and labels:
mouse (NTK) TGFβ2 = molecular target: T1, mouse (NTK) TGFβ2 (Homo sapiens, UniProt P61812, K396N/R362K/S361T); assay: Nitrocellulose-filter binding to mouse TGFβ2; conditions: FIG. 6C; read-out: binding affinity, mouse (NTK) TGFβ2
T1 construct: A synthetic polynucleotide encoding full length human TGFβ2 mature protein was cloned into pRSET E. coli expression vector; made in house
T1 sequence (P61812 303-414 S361T/R362K/K396N): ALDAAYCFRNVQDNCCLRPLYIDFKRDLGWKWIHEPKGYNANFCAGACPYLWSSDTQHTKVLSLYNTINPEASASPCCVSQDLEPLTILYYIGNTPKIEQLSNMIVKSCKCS
Experimental: (§1) Dissociation constants for the binding of aptamers to purified human or rodent TGFβ-2 protein were determined by nitrocellulose-filter partitioning using ^32P-labeled RNA. In vitro transcribed RNA was treated with calf-intestinal alkaline phophatase (New England Biolabs) to remove 5′-triphosphates, then radio-labeled by incubation with γ-^32P-ATP and T4 polynucleotide kinase (New England Biolabs). Unincorporated label was removed by gel-filtration, and the RNAs were further purified by polyacrylamide gel electrophoresis (PAGE). Purified ^32P-labeled aptamer in water was refolded just prior to use by heating for 3 min at 95° C., followed by a 10 minute room-temperature incubation in binding buffer (50 mM Hepes, pH 7.4, 1 mM MgCl2, 1 mM CaCl2, 3 mM KCl, 140 mM NaCl, 0.1 mg/ml BSA, 0.01 mg/ml tRNA). The binding reactions (100 μL) were initiated by the addition of aptamer (≦0.1 nM) to excess TGFβ-2 protein (0.2-100 nM), followed by 10-30 minute equilibration at room temperature.
(§2) Nitrocellulose-filter partitioning was performed on Minifold® I, 96-well Dot-Blot manifolds (Schleicher & Schuell). Protein-bound aptamer and residual free aptamer were captured, respectively, on pre-wetted Protran nitrocellulose (Schleicher & Schuell) and Hybond-P polyvinylidene difluoride (Amersham Biosciences) filters by vacuum aspiration, and quantified by PhosphorImager (Amersham Biosciences). […]

[1] = system: N-terminal His tagged human TGFβ2; assay: Nitrocellulose-filter binding to His-tagged TGFβ2; conditions: FIG. 6C; read-out: binding affinity, N-terminal His tagged human TGFβ2
Experimental: A synthetic polynucleotide encoding full length human TGFβ2 mature protein was cloned into pRSET E. coli expression vector and transformed into BL21 (pLys) strain. The transformed cells were grown under conditions leading to TGFβ2 protein being expressed at high level and forming inclusion bodies. The inclusion bodies were purified and solubilized. The TGFβ2 was refolded and purified by S75 size exclusion chromatography (FIG. 4A). A His-tagged TGFβ2 was also generated by adding His6 plus 30 extra amino acids at the N terminus of TGFβ2. Mutations at positions 59 (S→T), 60 (R→K) and 94 (K→N), referred to herein as the S59T/R60K/K94N mutant, were introduced by site directed mutagenesis. Both the His-tagged and mutated TGFβ2 were expressed, refolded and purified using the same protocol as for wild type TGFβ2.
Dissociation constants for the binding of aptamers to purified human or rodent TGFβ-2 protein were determined by nitrocellulose-filter partitioning using ^32P-labeled RNA. […]
as §2

human TGFβ2 [2] = molecular target: T2, human TGFβ2 (Homo sapiens, UniProt P61812); assay: MLEC proliferation assay (reversal of TGFβ2-mediated inhibition, BrdU); type: cell-based; conditions: for inhibition of the antiproliferative effects of TGFβ2: 50 pg/ml of TGFβ2, BrdU incorporation
T2 construct: two forms of mature TGFβ2 were generated, native and N-terminal his-tagged versions, in E. coli; made in house; host or cells: E. coli; added as soluble protein to MLEC
T2 sequence (P61812 303-414): T1 sequence (P61812 303-414 S361T/R362K/K396N) with T59S, K60R, N94K
Experimental: (§3) MLECs were plated at 2,000 cells per well and incubated at 37° C. for 4 hours. Aptamer and TGFβ2 were added at the indicated concentrations for 16 hours at 37° C. Cell proliferation was measured using BrdU incorporation. BrdU assay was performed as recommended by the manufacturer (Roche Diagnostics).
(§4) MLEC Assay. The mink lung epithelial cell proliferation assay is performed over two days. On day 1:1) media is aspirated off from Mink Lung Epithelial Cells (MLEC); 2) the MLEC are washed with 10 ml 1×PBS; 3) 3 ml Trypsin is added and Trypsinize for 3 min at 37° C.; 4) quench with 10 ml 0.5% FBS media; 5) spin at 1000 rpm for 3.30 min; 6) aspirate off supernatant; 7) resuspend pellet in 10 ml 0.5% FBS media; 8) Count 10 μl cell suspension; 9) adjust cell density to 80,000 cells/ml; 10) add 50 μl of cells/well to black bottomed 96-well plates (4000 cells/well); pipet up and down during plating process to avoid settling of cells and uneven plating; 11) incubate cells at 37° C. in 5% CO2 for 4 hrs to allow adherence of cells; 12) add 25 μl of aptamer (or media, or other test reagent, such as for example, an antibody), preferably the outer wells are not used for treated cells; 13) add 25 μl of TGFβ2 (typically 25 pg/ml); and 14) incubate cells at 37° C. in 5% CO2 overnight.
(§5) On day 2:1) mix 20 μl BrdU with 2 ml 0.5% FBS media; 2) add 10 μl of BrdU mixture/well; 3) incubate cells at 37° C. in 5% CO2 for 3 hrs; 4) remove media and blot plates dry on paper towels; 5) add 200 μl/well FixDenat solution and incubate for 30 min at room temperature (RT); 6) remove FixDenat solution and blot plates dry on paper towels; 7) add 100 μl /well anti-BrdU POD solution and incubate for 90 min at RT; 8) remove anti-BrdU POD solution and blot plates dry on paper towels; 9) wash plates 3× with […] washing solution with 5 min RT incubations and blot plates dry on paper towels; 10) add 100 μl /well substrate solution and incubate for 3 min at RT in dark; and 11) read plates using PSP Luciferace 1 program on TopCount (Packard Bioscience Co., Downers Grove, Ill.).

human TGFβ2 [3] = assay: as above; type: cell-based; conditions: FIG. 6B
Experimental: as §3, §4, §5

TGFβ2 = molecular target: T3, TGFβ2 (Homo sapiens, UniProt P61812); assay: Nitrocellulose-filter partitioning binding of 32P-labeled aptamer to TGFβ-2 protein; set-up: A synthetic polynucleotide encoding full length human TGFβ2 mature protein was cloned into pRSET E. coli expression vector; made in house
T3 sequence (P61812 303-414 limits assumed): T1 sequence (P61812 303-414 S361T/R362K/K396N) with T59S, K60R, N94K
Experimental: as §1
Nitrocellulose-filter partitioning was performed on Minifold® I, 96-well Dot-Blot manifolds (Schleicher & Schuell). Protein-bound aptamer and residual free aptamer were captured, respectively, on pre-wetted Protran nitrocellulose (Schleicher & Schuell) and Hybond-P polyvinylidene difluoride (Amersham Biosciences) filters by vacuum aspiration, and quantified by PhosphorImager (Amersham Biosciences). The proportion of protein-bound aptamer at each TGFβ-2 concentration was plotted as the ratio of counts-per-minute on the Protran nitrocellulose filter (CPMNC) to the sum of CPM on the Protran and Hybond-P filters (CPMtotal). Estimates of dissociation constants (KD) were obtained from a fit of the concentration of TGFβ-2 (i.e., [TGFβ-2])-dependent data to a standard binding isotherm: CPMNC/CPMtotal=Cmax/(1+KD/[TGFβ2]total), where Cmax equals the maximum observed value of CPMNC/CPMtotal at saturating [TGFβ-2], likely reflecting the proportion of properly-folded aptamer that is competent to recognize TGFβ-2.

[4] = system: TGFβ2 in rabbit aqueous humor; assay: Aqueous humor challenge assay (MLEC proliferation); type: cell-based
Experimental: MLEC Assay. The mink lung epithelial cell proliferation assay is performed over two days. […]
as §5
MLECs were plated at 2,000 cells per well and incubated at 37° C. for 4 hours. […] Cell proliferation was measured using BrdU incorporation. […]

[5] = Pharmacokinetics via subconjunctival administration; type: in vivo, mice
Experimental: A pharmacokinetic study was performed to determine the pharmacokinetics of ARC81, ARC117 and ARC119, TGFβ2 aptamers having the sequences of SEQ ID NOs:4, 9 and 11, respectively), via subconjunctival administration in mice. These aptamers were formulated at a concentration of 10 mg/ml. Samples were collected at 0, 0.5, 1, 2, 6, 12, 24, 48 and 96 hours post-administration. FIGS. 21A, 21B and 21C show the aqueous humor and/or plasma concentration of each aptamer (in nM) through 50 hours post dose via subconjunctival administration.

[6] = system: retinal pigmented epithelial (RPE) cells; assay: RPE cell migration with PDGF; type: cell-based; conditions: 100 ng/ml PDGF
From the text: The graphs presented in FIG. 15E and 15F show the increasing effect of PDGF concentration on RPE cell migration.

[7] = 32P-labeled aptamer, nitrocellulose-filter partitioning, fit to Equation 1, read-out: Kd
[8] = Aq Humour, subconjunctival, 1 mg/eye bilaterally
[9] = PLASMA, subconjunctival, 1 mg/eye bilaterally
[10] = after subconjunctival administration

Sequence of N-terminal His tagged human TGFβ2 (P61812 303-414 limits assumed): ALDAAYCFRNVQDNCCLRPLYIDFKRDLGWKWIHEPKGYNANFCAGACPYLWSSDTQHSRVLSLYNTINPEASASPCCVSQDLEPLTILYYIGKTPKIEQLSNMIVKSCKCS

Substance: 5′-GGAGGfUfUAfUfUAfCAGAGfUfCfUGfUAfUAGfCfUGfUAfCfUfCfC-3T-3′ (GGAGGUUAUUACAGAGUCUGUAUAGCUGUACUCC; 2'-fluoro at CU, RNA at AG, 3' {3T}, backbone not given here) [ARC77]
- Kd (mouse (NTK) TGFβ2): 80 ± 5 nM
- Kd [1]: ≥ 500 nM
- inhibition of the antiproliferative effects of TGFβ2 (human TGFβ2 [2]): inhibit the antiproliferative effects of 50 pg/ml of TGFβ2
- IC50 (human TGFβ2 [2]; read-out: cell IC50): 10 nM
- potency against human versus rodent form of TGFβ2 (human TGFβ2 [3]): more potent against the human form of TGFβ2 than the rodent version
- Kd (TGFβ2; [7]): 3.6 nM
- Kd (TGFβ2; FIG. 6C, read-out: binding affinity, human wild type (WT) TGFβ2): 2.5 ± 0.3 nM
- Kd (TGFβ2; read-out: KD): 1 nM

Substance: 5′-NH2-mGmGmGmGfUfUAfUfUmAfCmAmGmAmGfUfCfUGfUAfUAmGfCfUmGfUmAfCfCfC-3T-3′ (GGGGUUAUUACAGAGUCUGUAUAGCUGUACCC; sugars from the 5' end mmmmffrffmfmmmmfffrfrfrmffmfmfff, 5' {NH2}, 3' {3T}, backbone not given here) [ARC81]
- inhibition of the antiproliferative effects of TGFβ2 (human TGFβ2 [2]): inhibit the antiproliferative effects of 50 pg/ml of TGFβ2
- rescue of rabbit aqueous humor-mediated inhibition of MLEC proliferation ([4]; 1.5% rabbit aqueous humor): rescued rabbit aqueous humor-mediated inhibition of MLEC proliferation in a dose dependent manner
- inhibition of antiproliferative effects of rabbit aqueous humor ([4]; low concentrations of rabbit aqueous humor (e.g., <10%), 1000 nM ARC81): inhibited the antiproliferative effects of low concentrations of rabbit aqueous humor
- AUC (0-t) [5, 8]: 36.0 nM·h
- Cmax [5, 8]: 5.19 nM
- MRT [5, 8]: 6.03* h
- TLAST [5, 8]: 12 h
- tmax [5, 8]: 6 h
- AUC (0-t) [5, 9]: 29.8 nM·h
- Cmax [5, 9]: 6.44 nM
- MRT [5, 9]: 3.13 h
- TLAST [5, 9]: 12 h
- Vd [5, 9]: 21079 mL
- t1/2 [5, 9]: 2.42 h
- tmax [5, 9]: 1 h
- detection in the aqueous humor [5, 10]: detected in the aqueous humor
- time to enter systemic circulation [5, 10]: less than 0.5 hour
- Kd (TGFβ2; [7]): 5.1 nM

Substance: 5′-[PEG40K]-NH2-dCdAdGfCmGfUdAfCmG-PEG-dCdGTdAdCdCmGdATfUfCmA-PEG-TdGdAdAdGfCfUmG-3T-3′ [ARC128, reference compound]
- blocking of RPE cell migration [6]: has no activity
